What all share (format): functional
One test concerns Aspergillus flavus. The experiment in a line: Antifungal activity against Aspergillus flavus ATCC 24133 after 24 hrs by serial dilution method. The note with it: ATCC 24133, 24 h.
Another test has as its system Botrytis cinerea. The experiment in a line: Antifungal activity against Botrytis cinerea after 48 hrs by serial dilution method.
The next test relates to Aspergillus fumigatus. The experiment in a line: Antifungal activity against Aspergillus fumigatus ATCC 13073 after 24 hrs by serial dilution method. As to conditions: ATCC 13073, 24 h.
A further test has as its system Globisporangium ultimum. The experiment in a line: Antifungal activity against Pythium ultimum after 24 hrs by serial dilution method.
For the next test, the system named is Cryptococcus neoformans. In words: Antifungal activity against Cryptococcus neoformans ATCC 14117 after 24 hrs by serial dilution method. As to conditions: ATCC 14117, 24 h.
A further test concerns Phytophthora infestans. In words: Antifungal activity against Phytophthora infestans after 96 hrs by serial dilution method.
The test system of a further test is Candida tropicalis. The experiment in a line: Antifungal activity against Candida tropicalis CBS94 after 24 hrs by serial dilution method.

SMILES strings stand for the structures. Converted amounts (≈) assume the structure as drawn.

The MIC is the least concentration at which growth counts as inhibited. In the case of `CCC(C)C(=O)C(Cc1c[nH]c2ccccc12)OC(C)=O` (stereo unspecified), the minimal inhibitory concentration (MIC) is over 100 µg/mL against Aspergillus flavus; over 100 µg/mL with Botrytis cinerea; over 100 µg/mL against Aspergillus fumigatus; over 100 µg/mL in the test on Globisporangium ultimum; 50 µg/mL (≈ 174 µM) against Cryptococcus neoformans; 100 µg/mL (≈ 348 µM) in the test on Phytophthora infestans. In addition, the MIC against Candida tropicalis was over 100 µg/mL.
`CC(C)C(=O)C(O)Cc1c[nH]c2ccccc12` (stereo unspecified): the minimum inhibitory concentration (MIC) with Aspergillus flavus was over 100 µg/mL; with Botrytis cinerea it was 12 µg/mL (≈ 51.9 µM); against Aspergillus fumigatus, over 100 µg/mL; against Globisporangium ultimum, over 100 µg/mL; in the test with Cryptococcus neoformans it was over 100 µg/mL; against Phytophthora infestans, 50 µg/mL (≈ 216 µM). This compound yielded an MIC with Candida tropicalis of over 100 µg/mL.
In the case of `CC(=O)OC(Cc1c[nH]c2ccccc12)C(=O)C(C)C` (stereo unspecified), the MIC against Aspergillus flavus is over 100 µg/mL; in the test on Botrytis cinerea it was over 100 µg/mL; against Aspergillus fumigatus it was over 100 µg/mL; in the test with Cryptococcus neoformans it was 25 µg/mL (≈ 91.5 µM); in the test with Candida tropicalis, over 100 µg/mL.
With `CCC(C)C(=O)C(O)Cc1c[nH]c2ccccc12` (stereo unspecified), the MIC in the test with Aspergillus flavus was over 100 µg/mL; with Botrytis cinerea, 12 µg/mL (≈ 48.9 µM); against Aspergillus fumigatus it was over 100 µg/mL; in the test on Globisporangium ultimum it was over 100 µg/mL; in the test on Cryptococcus neoformans, over 100 µg/mL; in the test with Phytophthora infestans, 100 µg/mL (≈ 408 µM). The MIC in the test on Candida tropicalis was over 100 µg/mL.

The record behind these values is ChEMBL document CHEMBL1159272, “Antimicrobial metabolites from a bacterial symbiont” (1995).
